Data as given in article PMC10053925, “Virtual Screening of Novel 24-Dehydroxysterol Reductase (DHCR24) Inhibitors and the Biological Evaluation of Irbesartan in Cholesterol-Lowering Effect” (Molecules, 2023).

What was measured:
[1] = molecular target: T1, 3β-hydroxysterol-Δ(24)-reductase (DHCR24) (Homo sapiens, UniProt Q15392); experiment: in vitro turnover to cholesterol by immunoprecipitated DHCR24, HPLC; type: biochemical
T1 construct: DHCR24 immunoprecipitated from HepG2 cells infected with Ad-cmv-DHCR24 (antibody-DHCR24 complex)
T1 sequence (Q15392 23-516): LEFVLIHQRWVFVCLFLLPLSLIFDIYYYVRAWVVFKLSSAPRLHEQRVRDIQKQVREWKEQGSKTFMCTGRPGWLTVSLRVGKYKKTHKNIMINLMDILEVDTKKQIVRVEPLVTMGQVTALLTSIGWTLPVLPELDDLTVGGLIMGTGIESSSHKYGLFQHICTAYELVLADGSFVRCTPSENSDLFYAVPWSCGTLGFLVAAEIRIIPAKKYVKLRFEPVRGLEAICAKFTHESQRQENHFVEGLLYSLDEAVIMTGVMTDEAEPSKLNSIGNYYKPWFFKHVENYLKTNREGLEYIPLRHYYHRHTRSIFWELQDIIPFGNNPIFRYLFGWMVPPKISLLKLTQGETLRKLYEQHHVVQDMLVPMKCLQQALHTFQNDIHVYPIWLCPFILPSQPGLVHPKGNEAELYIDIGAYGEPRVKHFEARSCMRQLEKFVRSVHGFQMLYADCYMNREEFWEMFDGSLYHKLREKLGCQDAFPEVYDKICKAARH

[2] = molecular target: T1, 3β-hydroxysterol-Δ(24)-reductase (DHCR24); experiment: immune complex-activity assay; HPLC of desmosterol to cholesterol conversion; type: biochemical

SMILES	in vitro turnover to cholesterol by immunoprecipitated DHCR24, HPLC [1]	IC50 [2]
CC(C)=CCC[C@@H](C)[C@H]1CC[C@H]2[C@@H]3CC=C4C[C@@H](O)CC[C@]4(C)[C@H]3CC[C@]12C [DES, desmosterol]	desmosterol in the system can be catalyzed into cholesterol only in the presence of the DHCR24 enzyme	–
CCCCC1=NC2(CCCC2)C(=O)N1Cc1ccc(-c2ccccc2-c2nnn[nH]2)cc1 [IRB, Irbesartan]	–	602 nM
